# What was measured:
# Experiment in all cases: relative viability (nuclei count vs DMSO), 5 days (fraction); higher = more cells survive
# Everolimus + Trametinib = compound: CO[C@H]1C[C@@H]2CC[C@@H](C)[C@@](O)(O2)C(=O)C(=O)N2CCCC[C@H]2C(=O)O[C@H]([C@H](C)C[C@@H]2CC[C@@H](OCCO)[C@H](OC)C2)CC(=O)[C@H](C)/C=C(\C)[C@@H](O)[C@@H](OC)C(=O)[C@H](C)C[C@H](C)/C=C/C=C/C=C/1C [Everolimus] + CC(=O)Nc1cccc(-n2c(=O)n(C3CC3)c(=O)c3c(Nc4ccc(I)cc4F)n(C)c(=O)c(C)c32)c1 [Trametinib] (partner 0.02 µM)
# Summary of the method: (§1)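 For relative viability, nuclei counts in treated wells were divided by those in vehicle wells. Lung cancer cell lines had been pin-tool dosed in 1536-well plates the day after seeding and cultured for 5 days, then fixed and stained in one step (final 0.05% Triton X-100, 1% formaldehyde, 1 ug/ml Hoechst) and imaged at 4×. Doses were one drug alone or a fixed anchor-drug dose plus five library-drug doses (not always all listed) in √10 steps, and values are duplicate-plate medians.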
# Everolimus + OSI-027 = compound: CO[C@H]1C[C@@H]2CC[C@@H](C)[C@@](O)(O2)C(=O)C(=O)N2CCCC[C@H]2C(=O)O[C@H]([C@H](C)C[C@@H]2CC[C@@H](OCCO)[C@H](OC)C2)CC(=O)[C@H](C)/C=C(\C)[C@@H](O)[C@@H](OC)C(=O)[C@H](C)C[C@H](C)/C=C/C=C/C=C/1C [Everolimus] + COc1cccc2cc(-c3nc([C@H]4CC[C@H](C(=O)O)CC4)n4ncnc(N)c34)[nH]c12 [OSI-027] (partner 0.5 µM)
# Summary of the method: as §1
# Everolimus + Crizotinib = compound: CO[C@H]1C[C@@H]2CC[C@@H](C)[C@@](O)(O2)C(=O)C(=O)N2CCCC[C@H]2C(=O)O[C@H]([C@H](C)C[C@@H]2CC[C@@H](OCCO)[C@H](OC)C2)CC(=O)[C@H](C)/C=C(\C)[C@@H](O)[C@@H](OC)C(=O)[C@H](C)C[C@H](C)/C=C/C=C/C=C/1C [Everolimus] + C[C@@H](Oc1cc(-c2cnn(C3CCNCC3)c2)cnc1N)c1c(Cl)ccc(F)c1Cl [Crizotinib] (partner 1 µM)
# Summary of the method: as §1
# Everolimus + Phenformin = compound: CO[C@H]1C[C@@H]2CC[C@@H](C)[C@@](O)(O2)C(=O)C(=O)N2CCCC[C@H]2C(=O)O[C@H]([C@H](C)C[C@@H]2CC[C@@H](OCCO)[C@H](OC)C2)CC(=O)[C@H](C)/C=C(\C)[C@@H](O)[C@@H](OC)C(=O)[C@H](C)C[C@H](C)/C=C/C=C/C=C/1C [Everolimus] + N=C(N)NC(=N)NCCc1ccccc1 [Phenformin] (partner 250 µM)
# Summary of the method: as §1
Cell Line,relative viability (Everolimus + Trametinib; first compound 0.01 µM),relative viability (Everolimus + Trametinib; first compound 0.03162 µM),relative viability (Everolimus + Trametinib; first compound 0.1 µM),relative viability (Everolimus + Trametinib; first compound 0.3162 µM),relative viability (Everolimus + Trametinib; first compound 1 µM),relative viability (Everolimus + OSI-027; first compound 0.01 µM),relative viability (Everolimus + OSI-027; first compound 0.03162 µM),relative viability (Everolimus + OSI-027; first compound 0.1 µM),relative viability (Everolimus + OSI-027; first compound 0.3162 µM),relative viability (Everolimus + OSI-027; first compound 1 µM),relative viability (Everolimus + Crizotinib; first compound 0.01 µM),relative viability (Everolimus + Crizotinib; first compound 0.03162 µM),relative viability (Everolimus + Crizotinib; first compound 0.1 µM),relative viability (Everolimus + Crizotinib; first compound 0.3162 µM),relative viability (Everolimus + Crizotinib; first compound 1 µM),relative viability (Everolimus + Phenformin; first compound 0.01 µM),relative viability (Everolimus + Phenformin; first compound 0.03162 µM),relative viability (Everolimus + Phenformin; first compound 0.1 µM),relative viability (Everolimus + Phenformin; first compound 0.3162 µM),relative viability (Everolimus + Phenformin; first compound 1 µM)
NCI-H1944,0.311,0.303,0.341,0.312,0.298,0.365,0.305,0.294,0.358,0.326,0.82,0.878,0.751,0.827,0.697,0.183,0.19,0.165,0.208,0.222
NCI-H1975,0.389,0.373,0.287,0.276,0.226,0.496,0.498,0.45,0.473,0.436,0.924,0.774,0.921,0.876,0.783,0.378,0.383,0.387,0.367,0.323
NCI-H1993,0.423,0.469,0.486,0.464,0.536,0.566,0.554,0.53,0.529,0.553,0.688,0.659,0.702,0.642,0.705,0.525,0.498,0.533,0.468,0.454
NCI-H2009,0.132,0.121,0.14,0.138,0.158,0.34,0.344,0.424,0.374,0.397,0.693,0.856,0.612,0.646,0.763,0.427,0.464,0.421,0.451,0.402
NCI-H2023,0.259,0.216,0.247,0.187,0.225,0.197,0.25,0.178,0.153,0.158,0.433,0.388,0.368,0.395,0.312,0.309,0.375,0.343,0.277,0.266
NCI-H2085,0.313,0.329,0.299,0.264,0.297,0.457,0.454,0.257,0.476,0.438,0.775,0.719,0.64,0.655,0.496,0.573,0.559,0.395,0.503,0.521
NCI-H2087,0.158,0.137,0.185,0.161,0.143,0.356,0.327,0.388,0.49,0.233,1.18,1.01,0.783,0.885,0.922,0.41,0.317,0.423,0.351,0.41
NCI-H2126,0.39,0.362,0.371,0.343,0.383,0.528,0.431,0.414,0.475,0.426,0.755,0.736,0.671,0.721,0.665,0.485,0.45,0.41,0.48,0.455
NCI-H2170,0.316,0.248,0.266,0.252,0.279,0.464,0.338,0.481,0.422,0.421,0.59,0.587,0.455,0.537,0.49,0.388,0.402,0.387,0.403,0.414
NCI-H2228,0.33,0.237,0.256,0.251,0.265,0.23,0.295,0.237,0.21,0.265,0.331,0.254,0.281,0.303,0.328,0.214,0.194,0.172,0.291,0.187
NCI-H2347,0.266,0.337,0.244,0.261,0.286,0.382,0.253,0.326,0.501,0.34,0.683,0.568,0.554,0.546,0.58,0.388,0.353,0.351,0.384,0.26
NCI-H2405,0.419,0.362,0.385,0.426,0.431,0.505,0.474,0.532,0.459,0.488,0.792,0.693,0.683,0.696,0.659,0.364,0.353,0.33,0.335,0.382
NCI-H3122,0.167,0.147,0.172,0.141,0.11,0.463,0.579,0.315,0.454,0.488,0.219,0.246,0.238,0.194,0.192,0.368,0.45,0.391,0.37,0.402
PC-3 [JPC-3],0.601,0.582,0.531,,0.681,0.7,0.602,0.588,0.512,0.631,1.02,0.992,0.911,0.96,1.02,0.454,0.461,0.408,0.461,0.463
PC-14,0.297,0.444,0.23,0.36,0.276,0.567,0.482,0.418,0.455,0.455,0.983,0.936,0.942,0.908,0.741,0.443,0.369,0.459,0.32,0.488
RERF-LC-KJ,0.654,0.613,0.495,0.494,0.524,0.449,0.358,0.313,0.411,0.429,0.804,0.627,0.683,0.667,0.567,0.377,0.426,0.377,0.381,0.376
SK-LU-1,0.39,0.355,0.298,0.345,0.317,0.225,0.187,0.248,0.269,0.265,0.478,0.511,0.572,0.544,0.626,0.306,0.323,0.291,0.369,0.342
SK-MES-1,0.38,0.412,0.372,0.397,0.277,0.398,0.512,0.499,0.414,0.483,0.871,0.689,0.689,0.644,0.608,0.55,0.583,0.574,0.552,0.545
SW 1573,0.3,0.311,0.291,0.303,0.281,0.42,0.309,0.352,0.345,0.365,0.593,0.521,0.53,0.383,0.427,0.205,0.238,0.175,0.182,0.12
UMC-11,0.267,0.299,0.252,0.348,0.295,0.272,0.288,0.257,0.297,0.277,0.271,0.244,0.239,0.249,0.286,0.281,0.249,0.261,0.294,0.269

# — the supplement of paper PMC10307832
